Legend:
[1] = Inhibition of phosphoinositide 3-Kinase (unknown origin); parameters: species or system Homo sapiens
[2] = Inhibition of VEGFR (unknown origin); parameters: species or system Homo sapiens
[3] = Inhibition of PDGFR in mouse NIH/3T3 cells assessed as reduction in tyrosine phosphorylation incubated for 2 hrs by SDS-PAGE based immunoblot assay; assay type: cell-based; details: NIH3T3, 2 h
[4] = target: Platelet-derived growth factor receptor beta (Homo sapiens, UniProt P09619); assay: Inhibition of human PDGFR beta
Platelet-derived growth factor receptor beta, sequence (P09619 whole entry): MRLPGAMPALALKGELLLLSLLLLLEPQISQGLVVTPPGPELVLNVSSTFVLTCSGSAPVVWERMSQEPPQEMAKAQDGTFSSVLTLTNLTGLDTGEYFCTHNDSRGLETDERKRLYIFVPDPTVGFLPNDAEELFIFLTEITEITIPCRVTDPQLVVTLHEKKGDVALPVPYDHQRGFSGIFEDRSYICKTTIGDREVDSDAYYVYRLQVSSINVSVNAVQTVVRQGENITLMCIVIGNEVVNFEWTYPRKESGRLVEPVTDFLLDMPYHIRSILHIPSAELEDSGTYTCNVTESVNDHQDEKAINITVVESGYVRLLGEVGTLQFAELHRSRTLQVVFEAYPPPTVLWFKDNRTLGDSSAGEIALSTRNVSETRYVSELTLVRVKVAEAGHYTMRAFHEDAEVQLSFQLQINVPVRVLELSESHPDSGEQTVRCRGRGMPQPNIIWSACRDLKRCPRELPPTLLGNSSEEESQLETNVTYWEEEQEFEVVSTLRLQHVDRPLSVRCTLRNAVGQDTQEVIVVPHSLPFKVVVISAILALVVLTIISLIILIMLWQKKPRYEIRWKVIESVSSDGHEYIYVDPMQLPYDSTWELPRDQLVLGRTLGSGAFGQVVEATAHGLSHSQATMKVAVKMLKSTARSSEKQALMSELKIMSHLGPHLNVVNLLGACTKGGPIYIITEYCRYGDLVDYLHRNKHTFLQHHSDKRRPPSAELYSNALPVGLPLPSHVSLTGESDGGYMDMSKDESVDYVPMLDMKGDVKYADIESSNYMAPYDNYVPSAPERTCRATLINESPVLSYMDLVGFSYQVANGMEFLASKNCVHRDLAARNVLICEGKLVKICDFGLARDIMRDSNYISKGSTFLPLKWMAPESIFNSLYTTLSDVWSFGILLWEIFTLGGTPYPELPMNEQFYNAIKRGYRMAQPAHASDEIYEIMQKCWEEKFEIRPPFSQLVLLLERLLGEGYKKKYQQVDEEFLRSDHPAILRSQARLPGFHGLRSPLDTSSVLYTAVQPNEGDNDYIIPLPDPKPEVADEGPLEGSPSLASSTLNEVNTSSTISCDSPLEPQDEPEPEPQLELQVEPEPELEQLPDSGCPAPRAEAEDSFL

[5] = target: Epidermal growth factor receptor (Homo sapiens, UniProt P00533); assay: Inhibition of EGFR in human A431 cells incubated for 2 hrs followed by EGF stimulation and measured after 10 mins by immunoblot assay; assay type: cell-based
Epidermal growth factor receptor, sequence (P00533 whole entry): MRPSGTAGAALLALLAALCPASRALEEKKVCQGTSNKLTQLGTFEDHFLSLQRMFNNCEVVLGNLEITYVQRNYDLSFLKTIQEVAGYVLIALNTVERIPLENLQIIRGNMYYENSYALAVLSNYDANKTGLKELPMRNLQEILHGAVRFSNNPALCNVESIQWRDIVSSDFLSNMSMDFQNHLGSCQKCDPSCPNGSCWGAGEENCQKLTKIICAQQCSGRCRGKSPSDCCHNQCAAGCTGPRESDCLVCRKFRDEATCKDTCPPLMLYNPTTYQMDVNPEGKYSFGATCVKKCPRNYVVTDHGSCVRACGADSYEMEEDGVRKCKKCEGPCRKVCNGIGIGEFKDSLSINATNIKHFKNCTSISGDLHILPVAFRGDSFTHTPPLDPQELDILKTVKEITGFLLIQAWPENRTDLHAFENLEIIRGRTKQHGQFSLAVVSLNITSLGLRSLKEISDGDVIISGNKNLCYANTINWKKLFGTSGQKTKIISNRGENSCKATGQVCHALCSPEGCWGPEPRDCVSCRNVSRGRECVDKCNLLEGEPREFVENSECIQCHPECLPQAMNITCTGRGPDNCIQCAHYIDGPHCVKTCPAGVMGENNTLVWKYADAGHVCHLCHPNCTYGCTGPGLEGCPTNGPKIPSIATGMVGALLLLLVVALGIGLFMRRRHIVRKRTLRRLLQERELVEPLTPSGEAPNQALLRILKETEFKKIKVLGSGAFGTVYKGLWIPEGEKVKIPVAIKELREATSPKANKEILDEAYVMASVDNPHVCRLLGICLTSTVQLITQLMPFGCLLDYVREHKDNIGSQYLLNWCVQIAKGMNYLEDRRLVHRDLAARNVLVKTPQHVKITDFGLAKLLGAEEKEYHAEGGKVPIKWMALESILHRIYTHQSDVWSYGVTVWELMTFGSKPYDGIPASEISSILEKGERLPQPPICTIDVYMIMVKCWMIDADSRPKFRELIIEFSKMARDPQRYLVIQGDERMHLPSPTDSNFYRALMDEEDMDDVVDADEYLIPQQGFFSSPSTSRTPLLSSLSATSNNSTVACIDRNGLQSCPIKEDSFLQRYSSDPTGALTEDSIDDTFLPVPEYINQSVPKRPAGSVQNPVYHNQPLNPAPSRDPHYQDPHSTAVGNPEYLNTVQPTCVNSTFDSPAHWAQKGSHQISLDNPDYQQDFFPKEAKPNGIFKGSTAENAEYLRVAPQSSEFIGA

[6] = target: Proto-oncogene tyrosine-protein kinase Src (Mus musculus, UniProt P05480); assay: Inhibition of SRC in transformed mouse NIH3T3 cells by SDS-PAGE based immunoblot assay; assay type: cell-based
Proto-oncogene tyrosine-protein kinase Src, sequence (P05480 2-535 limits assumed): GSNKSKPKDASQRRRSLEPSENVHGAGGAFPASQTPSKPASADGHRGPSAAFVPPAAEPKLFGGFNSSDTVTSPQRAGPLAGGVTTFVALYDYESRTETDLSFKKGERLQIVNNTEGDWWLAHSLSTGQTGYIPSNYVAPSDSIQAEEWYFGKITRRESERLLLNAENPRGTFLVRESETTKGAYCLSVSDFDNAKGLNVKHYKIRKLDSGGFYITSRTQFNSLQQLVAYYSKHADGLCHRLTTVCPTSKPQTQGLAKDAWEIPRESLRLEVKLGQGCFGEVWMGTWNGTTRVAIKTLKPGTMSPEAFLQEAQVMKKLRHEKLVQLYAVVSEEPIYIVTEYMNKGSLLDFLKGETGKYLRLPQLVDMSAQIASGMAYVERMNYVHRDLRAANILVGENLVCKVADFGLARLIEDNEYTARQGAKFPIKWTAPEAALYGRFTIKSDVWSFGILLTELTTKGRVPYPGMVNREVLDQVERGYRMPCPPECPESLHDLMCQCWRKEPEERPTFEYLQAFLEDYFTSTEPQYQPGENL

[7] = target: T1, Receptor-type tyrosine-protein kinase FLT3 (Homo sapiens, UniProt P36888); assay: Inhibition of human FLT3 expressed in mouse BAF3 cells assessed as reduction in […] incubated for 2 hrs followed by FLT3 ligand stimulation by immunoblot analysis; assay type: cell-based
T1 sequence (P36888 whole entry): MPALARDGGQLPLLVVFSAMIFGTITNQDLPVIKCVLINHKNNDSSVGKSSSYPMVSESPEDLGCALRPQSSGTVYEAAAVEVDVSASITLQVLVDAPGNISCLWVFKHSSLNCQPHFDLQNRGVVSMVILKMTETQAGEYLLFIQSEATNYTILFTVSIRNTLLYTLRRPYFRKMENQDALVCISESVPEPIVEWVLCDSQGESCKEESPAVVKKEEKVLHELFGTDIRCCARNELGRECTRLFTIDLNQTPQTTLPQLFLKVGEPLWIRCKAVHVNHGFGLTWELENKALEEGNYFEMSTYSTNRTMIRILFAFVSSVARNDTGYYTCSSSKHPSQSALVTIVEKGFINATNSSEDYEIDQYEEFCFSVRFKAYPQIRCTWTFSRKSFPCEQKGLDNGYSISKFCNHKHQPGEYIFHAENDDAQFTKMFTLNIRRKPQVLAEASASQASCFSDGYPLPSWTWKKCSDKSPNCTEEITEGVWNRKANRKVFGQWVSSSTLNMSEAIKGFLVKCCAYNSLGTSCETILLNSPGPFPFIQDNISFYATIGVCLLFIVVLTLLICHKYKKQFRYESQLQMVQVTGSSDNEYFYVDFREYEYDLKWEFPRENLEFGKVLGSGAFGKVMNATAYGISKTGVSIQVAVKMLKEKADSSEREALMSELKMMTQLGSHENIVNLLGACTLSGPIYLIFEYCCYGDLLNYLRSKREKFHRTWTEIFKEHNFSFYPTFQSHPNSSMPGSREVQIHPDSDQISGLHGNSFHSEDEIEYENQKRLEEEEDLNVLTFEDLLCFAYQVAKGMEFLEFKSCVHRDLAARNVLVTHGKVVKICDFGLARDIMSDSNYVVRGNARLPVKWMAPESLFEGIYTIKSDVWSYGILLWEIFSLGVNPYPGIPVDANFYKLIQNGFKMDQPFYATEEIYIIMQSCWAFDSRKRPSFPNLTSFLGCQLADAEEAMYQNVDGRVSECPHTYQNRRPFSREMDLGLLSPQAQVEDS

[8] = target: Insulin-like growth factor 1 receptor (Homo sapiens, UniProt P08069); assay: Inhibition of IGFR1 (unknown origin) using poly (Glu,Tyr) 4:1 as substrate
Insulin-like growth factor 1 receptor, sequence (P08069 31-736 limits assumed): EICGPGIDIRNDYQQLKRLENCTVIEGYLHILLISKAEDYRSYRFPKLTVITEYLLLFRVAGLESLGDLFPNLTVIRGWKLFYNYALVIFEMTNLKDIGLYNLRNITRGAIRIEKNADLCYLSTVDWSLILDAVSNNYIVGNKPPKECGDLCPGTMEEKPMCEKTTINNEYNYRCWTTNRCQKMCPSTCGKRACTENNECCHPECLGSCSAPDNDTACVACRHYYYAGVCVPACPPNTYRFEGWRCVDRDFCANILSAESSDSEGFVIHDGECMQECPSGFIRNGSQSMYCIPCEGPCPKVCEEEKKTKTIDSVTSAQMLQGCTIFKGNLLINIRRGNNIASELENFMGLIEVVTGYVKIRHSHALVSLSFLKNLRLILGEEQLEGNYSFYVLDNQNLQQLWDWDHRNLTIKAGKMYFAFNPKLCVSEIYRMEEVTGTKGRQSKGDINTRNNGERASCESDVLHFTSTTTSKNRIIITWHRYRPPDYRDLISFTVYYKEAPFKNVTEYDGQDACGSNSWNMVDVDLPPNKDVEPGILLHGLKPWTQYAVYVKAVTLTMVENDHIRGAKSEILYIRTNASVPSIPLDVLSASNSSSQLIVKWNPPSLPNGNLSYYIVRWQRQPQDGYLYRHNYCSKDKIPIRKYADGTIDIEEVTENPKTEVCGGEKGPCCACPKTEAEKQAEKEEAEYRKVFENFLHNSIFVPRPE
Insulin-like growth factor 1 receptor, sequence (P08069 741-1367 limits assumed): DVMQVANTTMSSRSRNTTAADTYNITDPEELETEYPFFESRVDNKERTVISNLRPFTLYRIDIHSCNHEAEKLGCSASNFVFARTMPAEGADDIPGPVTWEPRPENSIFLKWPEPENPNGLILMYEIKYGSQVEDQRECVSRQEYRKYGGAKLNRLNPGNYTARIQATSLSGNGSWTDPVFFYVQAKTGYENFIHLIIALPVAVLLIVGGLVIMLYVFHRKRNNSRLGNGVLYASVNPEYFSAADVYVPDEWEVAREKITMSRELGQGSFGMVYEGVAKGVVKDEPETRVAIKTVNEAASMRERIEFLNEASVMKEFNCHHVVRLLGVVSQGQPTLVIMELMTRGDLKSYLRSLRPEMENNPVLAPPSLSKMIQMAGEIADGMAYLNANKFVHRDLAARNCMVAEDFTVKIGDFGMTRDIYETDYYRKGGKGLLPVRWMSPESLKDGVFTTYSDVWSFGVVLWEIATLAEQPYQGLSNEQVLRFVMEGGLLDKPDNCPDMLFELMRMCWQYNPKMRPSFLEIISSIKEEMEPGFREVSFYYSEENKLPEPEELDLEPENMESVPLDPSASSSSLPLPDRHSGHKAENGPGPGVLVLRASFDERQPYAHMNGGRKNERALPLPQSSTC

[9] = target: Mast/stem cell growth factor receptor Kit (Homo sapiens, UniProt P10721); assay: Inhibition of c-KIT in human M-07e cells assessed as reduction in […] incubated for 2 hrs followed by KIT ligand stimulation by immunoblotting analysis; assay type: cell-based
HCT-15 = assay: Antiproliferative activity against human HCT15 cells; assay type: functional, cell-based
SK-OV-3 = assay: Antiproliferative activity against human SKOV3 cells; assay type: functional, cell-based
U-87 MG = assay: Antiangiogenic activity in human U87cells after 24 hrs by MTT assay; assay type: functional, cell-based, U-87MG ATCC
BE = assay: Antiangiogenic activity in human BE cells after 24 hrs by MTT assay; assay type: functional, cell-based
HUVEC = assay: Antiangiogenic activity in HUVEC after 24 hrs by MTT assay; assay type: functional, cell-based; details: Homo sapiens
MCF7 = assay: Cytotoxicity against human MCF7 cells after 48 hrs by MTT assay; assay type: functional, cell-based; details: MCF7, 48 h
[10] = Half life in mouse plasma; assay type: ADME, cell-free
[11] = Half life in rat plasma; assay type: ADME, cell-free
[12] = Half life in guinea pig plasma; assay type: ADME, cell-free, Cavia porcellus
K562 [13] = assay: Cytotoxicity against human K562 cells after 72 hrs in presence of 3% O2 by MTT assay; assay type: functional, cell-based; details: K562, 72 h
K562 [14] = assay: Cytotoxicity against human K562 cells after 72 hrs in presence of 20% O2 by MTT assay; assay type: functional, cell-based; details: K562, 72 h
PC-3 [15] = assay: Cytotoxicity against human PC3 cells after 72 hrs in presence of 20% O2 by MTT assay; assay type: functional, cell-based; details: PC-3, 72 h
SGC-7901 [16] = assay: Cytotoxicity against human SGC7901 cells after 72 hrs in presence of 20% O2 by MTT assay; assay type: functional, cell-based; details: SGC-7901, 72 h
ECa-109 cell line [17] = assay: Cytotoxicity against human ECA109 cells after 72 hrs in presence of 3% O2 by MTT assay; assay type: functional, cell-based; details: ECa-109, 72 h
SMMC-7721 [18] = assay: Cytotoxicity against human SMMC7721 cells after 72 hrs in presence of 3% O2 by MTT assay; assay type: functional, cell-based; details: SMMC-7721, 72 h
SMMC-7721 [19] = assay: Cytotoxicity against human SMMC7721 cells after 72 hrs in presence of 20% O2 by MTT assay; assay type: functional, cell-based; details: SMMC-7721, 72 h
SGC-7901 [20] = assay: Cytotoxicity against human SGC7901 cells after 72 hrs in presence of 3% O2 by MTT assay; assay type: functional, cell-based; details: SGC-7901, 72 h
PC-3 [21] = assay: Cytotoxicity against human PC3 cells after 72 hrs in presence of 3% O2 by MTT assay; assay type: functional, cell-based; details: PC-3, 72 h
ECa-109 cell line [22] = assay: Cytotoxicity against human ECA109 cells after 72 hrs in presence of 20% O2 by MTT assay; assay type: functional, cell-based; details: ECa-109, 72 h
[23] = Acute toxicity in po dosed Wistar rat measured up to 14 days; assay type: organism-based; details: in vivo
[24] = target: Cyclin-dependent kinase 5/CDK5 activator 1 (Homo sapiens, UniProt Q00535); assay: Inhibition of CDK5/p25 (unknown origin) expressed in Escherichia coli using histone as substrate in presence of [gamma32P]ATP after 10 mins by scintillation counting method
Cyclin-dependent kinase 5/CDK5 activator 1, sequence (Q00535 whole entry): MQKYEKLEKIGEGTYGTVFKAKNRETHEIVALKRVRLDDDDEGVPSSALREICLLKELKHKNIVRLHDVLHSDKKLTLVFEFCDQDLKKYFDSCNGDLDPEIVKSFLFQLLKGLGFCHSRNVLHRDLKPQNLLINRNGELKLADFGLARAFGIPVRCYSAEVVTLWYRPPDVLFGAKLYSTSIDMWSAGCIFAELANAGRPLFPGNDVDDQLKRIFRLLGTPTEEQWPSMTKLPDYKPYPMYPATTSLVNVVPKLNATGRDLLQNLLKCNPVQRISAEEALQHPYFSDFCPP
Cyclin-dependent kinase 5/CDK5 activator 1, sequence (Q15078 whole entry, further chain): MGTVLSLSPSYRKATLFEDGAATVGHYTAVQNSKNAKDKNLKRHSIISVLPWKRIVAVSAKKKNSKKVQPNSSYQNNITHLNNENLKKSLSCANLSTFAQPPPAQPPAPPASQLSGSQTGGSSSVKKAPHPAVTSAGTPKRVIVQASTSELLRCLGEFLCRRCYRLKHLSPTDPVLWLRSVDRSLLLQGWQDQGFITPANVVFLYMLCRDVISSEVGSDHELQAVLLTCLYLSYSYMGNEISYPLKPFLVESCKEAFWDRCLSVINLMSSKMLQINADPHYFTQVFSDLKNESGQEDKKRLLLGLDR

[25] = Inhibition of Marthasterias glacialis oocyte CDK1/cyclin B using histone as substrate in presence of [gamma32P]ATP after 10 mins by scintillation counting method

Compound: O=S(=O)(c1ccccc1)c1nc2ccccc2nc1N1CCOCC1
- IC50 [1]: 0.04 µM

Compound: O=S(=O)(c1ccc(Br)cc1)c1nc2ccccc2nc1N1CCC(O)CC1
- IC50 [1]: 0.04 µM

Compound: Cc1nc2cc3nc(-c4cccs4)cnc3cc2n1C
- IC50 [2]: > 30 µM
- IC50 [3]: 0.8 µM
- IC50 [4]: 0.09 µM
- IC50 [5]: > 30 µM
- IC50 [6]: > 30 µM
- IC50 [7]: 1 to 3 µM
- IC50 [8]: > 30 µM
- IC50 [9]: 1 to 3 µM

Compound: CCCCCNCc1ccc2c(c1)C(=O)c1nccnc1C2=O
- IC50 (HCT-15): 0.05 µM
- IC50 (SK-OV-3): 0.4 µM

Compound: Cc1cc2ncc(-c3ccc(O)c(O)c3)nc2cc1C
- IC50 (U-87 MG): > 50 µM
- IC50 (BE): > 50 µM
- IC50 (HUVEC): 24.7 µM

Compound: C[n+]1c2ccccc2nc2c1c1cc(F)ccc1n2CCCC[N+]1(C)CCCCC1
- IC50 (MCF7): 1.94 µM

Compound: C[n+]1c2ccccc2nc2c1c1cc(F)ccc1n2CCCC[N+]1(C)CCCC1
- IC50 (MCF7): 1.8 µM

Compound: C[n+]1c2ccccc2nc2c1c1cc(F)ccc1n2CCCCCC[N+]1(C)CCCCC1
- IC50 (MCF7): 1.6 µM

Compound: Cc1cc2ncc(-c3ccc(OCc4ccccc4)c(O)c3)nc2cc1C
- IC50 (U-87 MG): 15.9 µM
- IC50 (BE): 41 µM
- IC50 (HUVEC): > 100 µM

Compound: CC(=O)Oc1ccc(-c2cnc3cc(C)c(C)cc3n2)cc1O
- IC50 (U-87 MG): 42.3 µM
- IC50 (BE): > 50 µM
- IC50 (HUVEC): 54.4 µM

Compound: NC(=O)C1CCN(c2nc3ccccc3nc2S(=O)(=O)c2ccc(Br)cc2)CC1
- IC50 [1]: 0.04 µM

Compound: COc1ccc(-c2cnc3cc(C)c(C)cc3n2)cc1O
- IC50 (U-87 MG): > 50 µM
- IC50 (BE): > 50 µM
- IC50 (HUVEC): > 100 µM

Compound: CC(C)OC(=O)N1CCN(c2ncc(-c3ccc4nccnc4c3)cc2C#N)CC1
- half-life [10]: 61 min
- half-life [11]: 16.7 min
- half-life [12]: 4.02 min

Compound: CCS(=O)(=O)c1c(-c2ccc(Br)cc2)[n+]([O-])c2cc(C)ccc2[n+]1[O-]
- IC50 (K562 [13]): 0.18 µM
- IC50 (K562 [14]): < 10 µM
- IC50 (PC-3 [15]): < 10 µM
- IC50 (SGC-7901 [16]): < 10 µM
- IC50 (ECa-109 cell line [17]): 6.38 µM
- IC50 (SMMC-7721 [18]): 3.17 µM
- IC50 (SMMC-7721 [19]): < 10 µM
- IC50 (SGC-7901 [20]): 8.88 µM
- IC50 (PC-3 [21]): 4.98 µM
- IC50 (ECa-109 cell line [22]): < 10 µM

Compound: O=C(c1ccccc1)N1CCN(c2nc3ccccc3nc2S(=O)(=O)c2ccccc2)CC1
- IC50 [1]: 0.04 µM

Compound: CC(=O)c1c(C)[n+]([O-])c2ccccc2[n+]1[O-] [MEQUINDOX]
- LD50 at 336 h [23]: 550 mg/kg

Compound: Nc1n[nH]c2nc3ccccc3nc12 [QUINOXALINE1]
- IC50 [24]: 0.4 µM
- IC50 [25]: 0.6 µM

Reference: ChEMBL document CHEMBL4342402, “An insight into medicinal chemistry of anticancer quinoxalines” (Bioorg Med Chem, 2019)
